Measured values reported in the NIST ThermoML archive (doi:10.1021/acs.jced.5b00536).
Where “and” joins values, the source holds several entries; their conditions need not be identical. Identical values can stand only once. Numbers after ± are expanded uncertainties.

Test: xn = mol fraction of the nth substance listed
Settings: x2 = 0.79; for electrical conductivity / mass density: 100 kPa, Liquid; for electrical conductivity: Alternating current cell with electrodes; for mass density: Buoyancy - hydrostatic balance; for surface tension liquid-gas: Maximal bubble pressure

[Ca+2].[F-].[F-] [calcium fluoride] + [F-].[Li+]
electrical conductivity (1131.2 K): 0.05865 ± 0.00042 S/m
mass density (1131.4 K): 2066.7 ± 7.1 kg/m3
mass density (1131.9 K): 2066.7 ± 7.1 kg/m3
mass density (1132.7 K): 2065.5 ± 7.1 kg/m3
mass density (1132.8 K): 2066 ± 7.1 kg/m3
electrical conductivity (1133 K): 0.05876 ± 0.00038 S/m
mass density (1133.3 K): 2064.9 ± 8 kg/m3
mass density (1134.1 K): 2064.2 ± 8.2 kg/m3
mass density (1134.2 K): 2064.2 ± 8.1 kg/m3
electrical conductivity (1134.7 K): 0.05888 ± 0.00044 S/m
mass density (1135 K): 2063.5 ± 8.1 kg/m3
mass density (1135.3 K): 2062.4 ± 7.9 kg/m3 and 2063 ± 7.9 kg/m3
mass density (1135.7 K): 2062.4 ± 7.9 kg/m3
mass density (1136.2 K): 2061.7 ± 8.1 kg/m3
electrical conductivity (1136.4 K): 0.05912 ± 0.00048 S/m
mass density (1136.5 K): 2060.6 ± 8.1 kg/m3
mass density (1136.8 K): 2060.6 ± 8 kg/m3
mass density (1136.9 K): 2061.1 ± 8.2 kg/m3
mass density (1137.2 K): 2060 ± 8.3 kg/m3
mass density (1137.5 K): 2061.6 ± 8 kg/m3
mass density (1137.8 K): 2061 ± 8 kg/m3
electrical conductivity (1138.1 K): 0.05927 ± 0.00054 S/m
mass density (1138.2 K): 2060.4 ± 8 kg/m3
mass density (1138.7 K): 2059.8 ± 8 kg/m3
mass density (1139.3 K): 2059.2 ± 8.1 kg/m3
electrical conductivity (1139.9 K): 0.05965 ± 0.00057 S/m
mass density (1140 K): 2059.1 ± 7.9 kg/m3
mass density (1140.4 K): 2058.5 ± 8 kg/m3
mass density (1140.8 K): 2057.9 ± 7.8 kg/m3
mass density (1141.1 K): 2057.3 ± 7.9 kg/m3
mass density (1141.4 K): 2056.7 ± 7.8 kg/m3
electrical conductivity (1141.5 K): 0.05989 ± 0.00057 S/m
mass density (1142 K): 2056.6 ± 7.1 kg/m3
mass density (1142.7 K): 2056 ± 7.1 kg/m3
electrical conductivity (1143.2 K): 0.06013 ± 0.00052 S/m
mass density (1143.4 K): 2055.4 ± 7.1 kg/m3
mass density (1143.5 K): 2054.8 ± 7.1 kg/m3
mass density (1144.2 K): 2054.7 ± 7.1 kg/m3
mass density (1144.4 K): 2054.1 ± 7.1 kg/m3
mass density (1144.7 K): 2053.5 ± 7.1 kg/m3
electrical conductivity (1144.9 K): 0.06033 ± 0.00046 S/m
mass density (1145.2 K): 2053.5 ± 7.1 kg/m3
mass density (1145.5 K): 2052.9 ± 7.1 kg/m3
mass density (1146 K): 2061.1 ± 7.1 kg/m3
electrical conductivity (1146.5 K): 0.06057 ± 0.00043 S/m
mass density (1146.5 K): 2061.1 ± 7.1 kg/m3
mass density (1146.9 K): 2060.5 ± 7.1 kg/m3
mass density (1147.5 K): 2059.8 ± 7.1 kg/m3
mass density (1147.8 K): 2059.2 ± 7.1 kg/m3
mass density (1148 K): 2059.2 ± 7.1 kg/m3
electrical conductivity (1148.2 K): 0.06057 ± 0.0004 S/m
mass density (1148.6 K): 2058.6 ± 7.1 kg/m3
mass density (1148.9 K): 2058 ± 7.1 kg/m3
mass density (1149 K): 2058 ± 7.1 kg/m3
mass density (1149.7 K): 2057.4 ± 7.1 kg/m3
electrical conductivity (1149.9 K): 0.06079 ± 0.00041 S/m
mass density (1150.3 K): 2056.7 ± 7.9 kg/m3
mass density (1150.8 K): 2056.7 ± 8.1 kg/m3
surface tension liquid-gas (1151 K): 215.9 ± 10 mN/m
electrical conductivity (1151.4 K): 0.06095 ± 0.00043 S/m
mass density (1151.4 K): 2056.1 ± 8.2 kg/m3
mass density (1152 K): 2055.4 ± 8.2 kg/m3
mass density (1152.6 K): 2055.4 ± 8 kg/m3
mass density (1152.9 K): 2054.8 ± 8 kg/m3
electrical conductivity (1153 K): 0.06111 ± 0.00047 S/m
mass density (1153.8 K): 2054.1 ± 7.9 kg/m3
mass density (1154.1 K): 2053.5 ± 7.9 kg/m3
electrical conductivity (1154.5 K): 0.06131 ± 0.00049 S/m
mass density (1154.6 K): 2053.5 ± 7.9 kg/m3
mass density (1154.8 K): 2052.3 ± 8.1 kg/m3 and 2052.9 ± 8.1 kg/m3
mass density (1155.5 K): 2051.7 ± 8 kg/m3
mass density (1155.6 K): 2051.7 ± 8 kg/m3
mass density (1155.9 K): 2051.1 ± 8.1 kg/m3
electrical conductivity (1156.2 K): 0.0616 ± 0.00046 S/m
mass density (1156.5 K): 2050.5 ± 8 kg/m3
mass density (1156.6 K): 2049.9 ± 8 kg/m3 and 2051 ± 8 kg/m3
mass density (1157.1 K): 2050.4 ± 8.1 kg/m3
mass density (1157.5 K): 2050.4 ± 8.1 kg/m3
electrical conductivity (1157.7 K): 0.06168 ± 0.00045 S/m
mass density (1157.7 K): 2049.8 ± 8.1 kg/m3
mass density (1158.8 K): 2049.1 ± 8 kg/m3
mass density (1159 K): 2048.5 ± 7.8 kg/m3
mass density (1159.1 K): 2048.5 ± 7.8 kg/m3
electrical conductivity (1159.2 K): 0.06195 ± 0.00045 S/m
mass density (1159.9 K): 2047.9 ± 7.8 kg/m3
mass density (1160.2 K): 2047.3 ± 7.7 kg/m3
electrical conductivity (1160.7 K): 0.06201 ± 0.00037 S/m
mass density (1161.3 K): 2046.6 ± 7.2 kg/m3
mass density (1161.9 K): 2046 ± 7.2 kg/m3
electrical conductivity (1162.1 K): 0.062142 ± 4e-06 S/m
mass density (1162.8 K): 2045.9 ± 7.2 kg/m3
mass density (1163.2 K): 2045.3 ± 7.1 kg/m3
electrical conductivity (1163.6 K): 0.062335 ± 4e-06 S/m
mass density (1163.6 K): 2044.7 ± 7.2 kg/m3
mass density (1164.3 K): 2044.6 ± 7.1 kg/m3
mass density (1164.7 K): 2048.4 ± 7.2 kg/m3
electrical conductivity (1164.8 K): 0.062395 ± 4e-06 S/m
mass density (1164.9 K): 2048.4 ± 7.1 kg/m3
mass density (1165.1 K): 2048.4 ± 7.2 kg/m3
mass density (1165.4 K): 2047.8 ± 7.2 kg/m3
mass density (1166.2 K): 2047.1 ± 7.2 kg/m3
mass density (1166.5 K): 2046.5 ± 7.2 kg/m3
mass density (1167.2 K): 2046.4 ± 7.3 kg/m3
mass density (1167.7 K): 2045.8 ± 7.3 kg/m3
mass density (1167.9 K): 2045.3 ± 7.3 kg/m3
mass density (1168.5 K): 2045.2 ± 7.3 kg/m3
mass density (1168.8 K): 2044.6 ± 8.1 kg/m3
mass density (1169 K): 2044.6 ± 8.2 kg/m3
mass density (1169.3 K): 2044 ± 8.3 kg/m3
mass density (1169.9 K): 2043.4 ± 7.2 kg/m3
surface tension liquid-gas (1170 K): 216 ± 10 mN/m
mass density (1170.1 K): 2042.8 ± 7.2 kg/m3
mass density (1170.6 K): 2042.7 ± 7.2 kg/m3
mass density (1171.2 K): 2042.1 ± 7.2 kg/m3
mass density (1171.5 K): 2041.5 ± 7.2 kg/m3
mass density (1171.9 K): 2040.9 ± 7.2 kg/m3
mass density (1172.2 K): 2040.9 ± 7.2 kg/m3
mass density (1172.9 K): 2040.3 ± 7.2 kg/m3
mass density (1173.2 K): 2039.7 ± 7.2 kg/m3
mass density (1173.3 K): 2039.1 ± 7.2 kg/m3
mass density (1173.6 K): 2039.1 ± 7.2 kg/m3
mass density (1173.8 K): 2038.5 ± 7.2 kg/m3
mass density (1174.9 K): 2043.9 ± 7.2 kg/m3
mass density (1175.4 K): 2043.3 ± 7.1 kg/m3
mass density (1176 K): 2042.7 ± 7.1 kg/m3
mass density (1176.3 K): 2042.1 ± 7.2 kg/m3
mass density (1177.1 K): 2042 ± 7.2 kg/m3
mass density (1177.5 K): 2041.4 ± 7.2 kg/m3
mass density (1178.4 K): 2040.7 ± 7.1 kg/m3
mass density (1179.4 K): 2040 ± 8.2 kg/m3
mass density (1179.7 K): 2040 ± 8.2 kg/m3
mass density (1180.3 K): 2039.4 ± 8.2 kg/m3
mass density (1180.5 K): 2038.3 ± 7.4 kg/m3 and 2038.8 ± 7.4 kg/m3
mass density (1180.8 K): 2037.7 ± 7.4 kg/m3
mass density (1181 K): 2037.1 ± 7.4 kg/m3
mass density (1181.2 K): 2037.1 ± 7.5 kg/m3
mass density (1181.6 K): 2036.5 ± 7.4 kg/m3
mass density (1182.2 K): 2035.9 ± 7.5 kg/m3
mass density (1182.5 K): 2035.8 ± 7.4 kg/m3
mass density (1182.8 K): 2035.2 ± 7.5 kg/m3
mass density (1183.2 K): 2034.6 ± 7.4 kg/m3
mass density (1183.9 K): 2034.6 ± 7.5 kg/m3
mass density (1184.1 K): 2034 ± 7.5 kg/m3
mass density (1184.5 K): 2033.9 ± 7.5 kg/m3
mass density (1185.8 K): 2036.5 ± 7.2 kg/m3
mass density (1186.6 K): 2035.9 ± 7.2 kg/m3
mass density (1187 K): 2035.3 ± 7.2 kg/m3
mass density (1187.8 K): 2035.2 ± 7.2 kg/m3
surface tension liquid-gas (1188 K): 213.8 ± 10 mN/m
mass density (1188.4 K): 2034.6 ± 7.2 kg/m3
mass density (1189.1 K): 2033.9 ± 7.2 kg/m3
mass density (1189.4 K): 2033.9 ± 7.2 kg/m3
mass density (1189.9 K): 2033.3 ± 7.8 kg/m3
mass density (1190.2 K): 2032.7 ± 7.8 kg/m3
mass density (1190.8 K): 2032.6 ± 7.9 kg/m3
mass density (1191.6 K): 2032 ± 7.9 kg/m3
mass density (1192.4 K): 2031.4 ± 8 kg/m3
mass density (1192.9 K): 2030.7 ± 8 kg/m3
mass density (1193.2 K): 2030.7 ± 7.9 kg/m3
mass density (1193.7 K): 2030.1 ± 7.9 kg/m3
mass density (1194.1 K): 2029.5 ± 7.9 kg/m3
mass density (1194.4 K): 2029.5 ± 7.9 kg/m3
mass density (1194.5 K): 2028.9 ± 7.9 kg/m3
mass density (1194.7 K): 2028.3 ± 7.9 kg/m3
mass density (1195.3 K): 2028.3 ± 7.9 kg/m3
mass density (1195.7 K): 2027.7 ± 7.9 kg/m3
mass density (1196 K): 2027.1 ± 7.9 kg/m3
mass density (1196.4 K): 2027 ± 8 kg/m3
mass density (1197.1 K): 2026.4 ± 7.9 kg/m3
mass density (1197.6 K): 2026.3 ± 8 kg/m3
mass density (1198.3 K): 2025.7 ± 8.2 kg/m3
mass density (1198.8 K): 2025.1 ± 8.1 kg/m3
mass density (1199.3 K): 2025 ± 8.1 kg/m3
mass density (1199.6 K): 2024.4 ± 8.2 kg/m3
mass density (1200 K): 2024.4 ± 12 kg/m3
mass density (1200.6 K): 2023.8 ± 12 kg/m3
mass density (1200.8 K): 2023.2 ± 12 kg/m3
mass density (1201.2 K): 2023.2 ± 12 kg/m3
mass density (1201.6 K): 2022.6 ± 12 kg/m3
mass density (1202.1 K): 2022 ± 12 kg/m3
mass density (1202.3 K): 2020.8 ± 12 kg/m3
mass density (1202.5 K): 2020.8 ± 12 kg/m3
mass density (1203 K): 2020.2 ± 12 kg/m3
mass density (1203.4 K): 2020.1 ± 12 kg/m3
mass density (1203.7 K): 2019.6 ± 12 kg/m3
